In PubChem BioAssay AID1963827 (Molecular Pharmacology Branch, DTP, NCI, 2024):

Tested on: 994946-033-R-J1-PDC complex spheroid viability
Test: Anticancer human tumor 994946-033-R-J1-PDC patient-derived melanoma cell line growth inhibition [POLQ]
Settings: for IC50: curve of first compound; for viability, T/C: stronger effect = lower value; active means viability on the fitted dose curve at most 10% of control; inactive means the rest
Outline: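 Three-cell-type spheroids modelling solid tumor plus stroma served as the readout system; POL inhibitors were tested individually and in combination, concentration ranges set by clinical Cmax where known.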

[1] = second compound 0.0316 µM, first compound 0.0316 µM
[2] = second compound 0.0316 µM, first compound 0.1 µM
[3] = second compound 0.0316 µM, first compound 0.316 µM
[4] = second compound 0.0316 µM, first compound 1 µM
[5] = second compound 0.0316 µM, first compound 3.16 µM
[6] = second compound 0.0316 µM, first compound 10 µM
[7] = second compound 0.1 µM, first compound 0.0316 µM
[8] = second compound 0.1 µM, first compound 0.1 µM
[9] = second compound 0.1 µM, first compound 0.316 µM
[10] = second compound 0.1 µM, first compound 1 µM
[11] = second compound 0.1 µM, first compound 3.16 µM
[12] = second compound 0.1 µM, first compound 10 µM
[13] = second compound 0.316 µM, first compound 0.0316 µM
[14] = second compound 0.316 µM, first compound 0.1 µM
[15] = second compound 0.316 µM, first compound 0.316 µM
[16] = second compound 0.316 µM, first compound 1 µM
[17] = second compound 0.316 µM, first compound 3.16 µM
[18] = second compound 0.316 µM, first compound 10 µM
[19] = second compound 1 µM, first compound 0.0316 µM
[20] = second compound 1 µM, first compound 0.1 µM
[21] = second compound 1 µM, first compound 0.316 µM
[22] = second compound 1 µM, first compound 1 µM
[23] = second compound 1 µM, first compound 3.16 µM
[24] = second compound 1 µM, first compound 10 µM
[25] = second compound 3.16 µM, first compound 0.0316 µM
[26] = second compound 3.16 µM, first compound 0.1 µM
[27] = second compound 3.16 µM, first compound 0.316 µM
[28] = second compound 3.16 µM, first compound 1 µM
[29] = second compound 3.16 µM, first compound 3.16 µM
[30] = second compound 3.16 µM, first compound 10 µM
[31] = second compound 10 µM, first compound 0.0316 µM
[32] = second compound 10 µM, first compound 0.1 µM
[33] = second compound 10 µM, first compound 0.316 µM
[34] = second compound 10 µM, first compound 1 µM
[35] = second compound 10 µM, first compound 3.16 µM
[36] = second compound 10 µM, first compound 10 µM
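Further: spheroids exposed to drugs for 7 days.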
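Wherever viability, T/C is given: 100% = DMSO vehicle treated spheroids.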

C=CC(=O)N1CCN(c2nc(=O)n(-c3c(C)ccnc3C(C)C)c3nc(-c4c(O)cccc4F)c(F)cc23)C(C)C1 (stereo not drawn) + COC1C(OC(N)=O)C(O)C(Oc2ccc3c(O)c(NC(=O)c4ccc(O)c(CC=C(C)C)c4)c(=O)oc3c2C)OC1(C)C
inactive: viability, T/C [1] 80.4% | viability, T/C [2] 110% | viability, T/C [3] 104% | viability, T/C [4] 101% | viability, T/C [5] 104% | viability, T/C [6] 95.5% | viability, T/C [7] 102% | viability, T/C [8] 105% | viability, T/C [9] 87.5% | viability, T/C [10] 99.5% | viability, T/C [11] 90.8% | viability, T/C [12] 114% | viability, T/C [13] 92.8% | viability, T/C [14] 111% | viability, T/C [15] 119% | viability, T/C [16] 99% | viability, T/C [17] 138% | viability, T/C [18] 104% | viability, T/C [19] 112% | viability, T/C [20] 93.5% | viability, T/C [21] 118% | viability, T/C [22] 85.9% | viability, T/C [23] 112% | viability, T/C [24] 75.7% | viability, T/C [25] 94% | viability, T/C [26] 108% | viability, T/C [27] 113% | viability, T/C [28] 105% | viability, T/C [29] 93.3% | viability, T/C [30] 115% | viability, T/C [31] 98.1% | viability, T/C [32] 81.7% | viability, T/C [33] 99.9% | viability, T/C [34] 124% | viability, T/C [35] 86.9% | viability, T/C [36] 105%
> 10 µM: IC50 (second compound 0.0316 µM) | IC50 (second compound 0.1 µM) | IC50 (second compound 0.316 µM) | IC50 (second compound 1 µM) | IC50 (second compound 3.16 µM) | IC50 (second compound 10 µM)

CC(C)n1c(=O)n(C)c2cnc3cc(F)c(-c4ccc(OCCCN5CCCCC5)nc4)cc3c21 + COC1C(OC(N)=O)C(O)C(Oc2ccc3c(O)c(NC(=O)c4ccc(O)c(CC=C(C)C)c4)c(=O)oc3c2C)OC1(C)C
inactive: viability, T/C [1] 81.5% | viability, T/C [2] 65.5% | viability, T/C [3] 81.1% | viability, T/C [4] 59.1% | viability, T/C [5] 60% | viability, T/C [6] 36.8% | viability, T/C [7] 73.7% | viability, T/C [8] 100% | viability, T/C [9] 78.3% | viability, T/C [10] 69.8% | viability, T/C [11] 65.2% | viability, T/C [12] 31.6% | viability, T/C [13] 74.5% | viability, T/C [14] 76.7% | viability, T/C [15] 68.2% | viability, T/C [16] 68.3% | viability, T/C [17] 79.8% | viability, T/C [18] 46.5% | viability, T/C [19] 86.7% | viability, T/C [20] 86.5% | viability, T/C [21] 87% | viability, T/C [22] 102% | viability, T/C [23] 64.5% | viability, T/C [24] 31.6% | viability, T/C [25] 81.8% | viability, T/C [26] 68.5% | viability, T/C [27] 92.9% | viability, T/C [28] 93.8% | viability, T/C [29] 66.1% | viability, T/C [30] 50.6% | viability, T/C [31] 76.1% | viability, T/C [32] 65.9% | viability, T/C [33] 66.1% | viability, T/C [34] 82% | viability, T/C [35] 62.1% | viability, T/C [36] 40.1%
6.35 µM: IC50 (second compound 10 µM)
8.57 µM: IC50 (second compound 0.316 µM)
> 10 µM: IC50 (second compound 3.16 µM)
5.25 µM: IC50 (second compound 1 µM)
5.03 µM: IC50 (second compound 0.1 µM)
4.59 µM: IC50 (second compound 0.0316 µM)

CC1COCCN1c1cc(C2(S(C)(=N)=O)CC2)nc(-c2ccnc3[nH]ccc23)n1 (stereo not drawn) + COC1C(OC(N)=O)C(O)C(Oc2ccc3c(O)c(NC(=O)c4ccc(O)c(CC=C(C)C)c4)c(=O)oc3c2C)OC1(C)C
3.19 µM: IC50 (second compound 10 µM)
inactive: viability, T/C [1] 134% | viability, T/C [2] 95.5% | viability, T/C [3] 99.4% | viability, T/C [4] 45.6% | viability, T/C [5] 61.9% | viability, T/C [6] 41.1% | viability, T/C [7] 113% | viability, T/C [8] 101% | viability, T/C [9] 68.2% | viability, T/C [10] 65.3% | viability, T/C [11] 29.2% | viability, T/C [12] 36.1% | viability, T/C [13] 78.1% | viability, T/C [14] 116% | viability, T/C [15] 92.4% | viability, T/C [16] 63.9% | viability, T/C [17] 61.5% | viability, T/C [18] 34.1% | viability, T/C [19] 138% | viability, T/C [20] 105% | viability, T/C [21] 80.8% | viability, T/C [22] 68.9% | viability, T/C [23] 52.9% | viability, T/C [24] 49.6% | viability, T/C [25] 101% | viability, T/C [26] 90.5% | viability, T/C [27] 80.5% | viability, T/C [28] 75% | viability, T/C [29] 54.6% | viability, T/C [30] 57.9% | viability, T/C [31] 103% | viability, T/C [32] 85.4% | viability, T/C [33] 99% | viability, T/C [34] 102% | viability, T/C [35] 50% | viability, T/C [36] 37%
1.39 µM: IC50 (second compound 0.1 µM)
4.13 µM: IC50 (second compound 0.0316 µM)
4.03 µM: IC50 (second compound 0.316 µM)
8.12 µM: IC50 (second compound 1 µM)
> 10 µM: IC50 (second compound 3.16 µM)

Cn1ncnc1[C@H]1c2n[nH]c(=O)c3cc(F)cc(c23)N[C@@H]1c1ccc(F)cc1 + COC1C(OC(N)=O)C(O)C(Oc2ccc3c(O)c(NC(=O)c4ccc(O)c(CC=C(C)C)c4)c(=O)oc3c2C)OC1(C)C
inactive: viability, T/C (second compound 0.0316 µM, first compound 0.000316 µM) 92.5% | viability, T/C (second compound 0.0316 µM, first compound 0.001 µM) 96.1% | viability, T/C (second compound 0.0316 µM, first compound 0.00316 µM) 123% | viability, T/C (second compound 0.0316 µM, first compound 0.01 µM) 93.6% | viability, T/C [1] 71.5% | viability, T/C [2] 63.2% | viability, T/C (second compound 0.1 µM, first compound 0.000316 µM) 97.7% | viability, T/C (second compound 0.1 µM, first compound 0.001 µM) 81.9% | viability, T/C (second compound 0.1 µM, first compound 0.00316 µM) 93.4% | viability, T/C (second compound 0.1 µM, first compound 0.01 µM) 94.6% | viability, T/C [7] 72.8% | viability, T/C [8] 55.6% | viability, T/C (second compound 0.316 µM, first compound 0.000316 µM) 93.7% | viability, T/C (second compound 0.316 µM, first compound 0.001 µM) 101% | viability, T/C (second compound 0.316 µM, first compound 0.00316 µM) 93.3% | viability, T/C (second compound 0.316 µM, first compound 0.01 µM) 76.6% | viability, T/C [13] 66.3% | viability, T/C [14] 77.7% | viability, T/C (second compound 1 µM, first compound 0.000316 µM) 91.4% | viability, T/C (second compound 1 µM, first compound 0.001 µM) 103% | viability, T/C (second compound 1 µM, first compound 0.00316 µM) 104% | viability, T/C (second compound 1 µM, first compound 0.01 µM) 106% | viability, T/C [19] 59.9% | viability, T/C [20] 66.4% | viability, T/C (second compound 3.16 µM, first compound 0.000316 µM) 106% | viability, T/C (second compound 3.16 µM, first compound 0.001 µM) 81.2% | viability, T/C (second compound 3.16 µM, first compound 0.00316 µM) 117% | viability, T/C (second compound 3.16 µM, first compound 0.01 µM) 82.3% | viability, T/C [25] 70.4% | viability, T/C [26] 65.2% | viability, T/C (second compound 10 µM, first compound 0.000316 µM) 89.5% | viability, T/C (second compound 10 µM, first compound 0.001 µM) 102% | viability, T/C (second compound 10 µM, first compound 0.00316 µM) 110% | viability, T/C (second compound 10 µM, first compound 0.01 µM) 79.5% | viability, T/C [31] 78.4% | viability, T/C [32] 71.8%
> 0.1 µM: IC50 (second compound 0.0316 µM) | IC50 (second compound 0.1 µM) | IC50 (second compound 0.316 µM) | IC50 (second compound 1 µM) | IC50 (second compound 3.16 µM) | IC50 (second compound 10 µM)
